In patent US20220152100A1, “METHODS FOR CONTROLLED ACTIVATION OR ELIMINATION OF THERAPEUTIC CELLS” (Bellicum Pharmaceuticals, Inc., priority 2014, published 2022):

What was measured:
[1] = tested on: EBV-specific CTL lines (EBV-CTL); experiment: CID-induced elimination/apoptosis of transduced EBV-CTLs (GFP, annexin V/7-AAD flow cytometry); format: cell-based, human; details: for elimination of GFP+ cells: GFPhigh
Jurkat = experiment: CID-induced apoptosis (annexin V) in transduced Jurkat cells; format: cell-based, human; details: iFas-transduced Jurkat, 10 nM, 8 hours
iCasp9-positive MSCs = experiment: In vivo killing of iCasp9-transduced MSCs in SCID mice (luminescence, qPCR)
Procedure: All mouse experiments were performed in accordance with the Baylor College of Medicine animal husbandry guidelines. To assess the persistence of modified MSCs in vivo, a SCID mouse model was used in conjunction with an in vivo imaging system. MSCs were transduced with retroviruses coding for the enhanced green fluorescent protein-firefly luciferase (eGFP-FFLuc) gene alone or together with the iCasp9-ΔCD19 gene. Cells were sorted for eGFP positivity by fluorescence activated cell sorting using a MoFlo flow cytometer (Beckman Coulter, Fullerton, Calif.). Doubly transduced cells were also stained with PE-conjugated anti-CD19 and sorted for PE-positivity. SCID mice (8-10 weeks old) were injected subcutaneously with 5×10^5 MSCs with and without iCasp9-ΔCD19 in opposite flanks. […] For in vivo imaging of MSCs expressing eGFP-FFLuc, mice were injected intraperitoneally with D-luciferin (150 mg/kg) and analyzed using the Xenogen-IVIS Imaging System. Total luminescence (a measurement proportional to the total labeled MSCs deposited) at each time point was calculated by automatically defining regions-of-interest (ROIs) over the MSC implantation sites. These ROIs included all areas with luminescence signals at least 5% above background. Total photon counts were integrated for each ROI and an average value calculated. […]

[2] = T cells selected for high expression, overnight 10 nM

## CC[C@H](C(=O)N1CCCC[C@H]1C(=O)O[C@H](CCc1ccc(OC)c(OC)c1)c1cccc(OCC(=O)NCC(CNC(=O)COc2cccc([C@@H](CCc3ccc(OC)c(OC)c3)OC(=O)[C@@H]3CCCCN3C(=O)[C@@H](CC)c3cc(OC)c(OC)c(OC)c3)c2)CN(C)C)c1)c1cc(OC)c(OC)c(OC)c1 [AP20187]
[1]; F-Casp9M.I.GFPhigh, survival of GFP+ cells on day 7
  concentration sufficient to obtain the maximal deletion effect: 1 nM
[1]; GFPhigh-selected cells, 10 nM
  time to apoptotic characteristics (cell shrinkage and fragmentation): ≤ 14 h
[1]; GFPhigh-selected iCasp9M cells, 10 nM, day 7
  deletion of transduced cells: 99.1%
[1]; [2]
  apoptotic (annexin-V+/7-AAD−) phenotype: 64%
  necrotic (annexinV+/7-AAD+) phenotype: 30%
[1]; iCasp9M-transduced CTLs after CID
  reduction in mean fluorescence intensity of GFP in surviving CTLs: 70%
[1]; iCasp9M-transduced CTLs, 10 nM, day 7
  elimination of GFP+ cells: 99.2%+/−0.14
[1]; iFas-transduced CTLs, 10 nM, day 7
  elimination of GFP+ cells: 89.3%+/−4.9
Jurkat
  apoptotic cells (annexin-V): 56.4%+/−15.6
iCasp9-positive MSCs; after one week
  surviving iCasp9-positive cells, of the original population: 0.7%
iCasp9-positive MSCs; two injections of 50 μg 24 hours apart, qPCR
  killing of iCasp9-positive cells: > 99%
